Where a name gives a salt, the structure may show the parent alone.
molecular target: TrkA (Homo sapiens (Human), UniProt P04629); test: TrkA Omnia Assay; assay type: biochemical; details: averaged IC50; 20 nM enzyme, 500 μM ATP, 10 μM peptide substrate
Procedure, shortened: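 Recombinant TrkA (20 nM) preincubated 10 min at ambient temperature with compound, then Omnia Tyr Peptide #4 (10 μM) and ATP (500 μM) added in 25 mM MOPS pH 7.5, 5 mM MgCl2, 0.005% Triton X-100. Fluorescence (ex 360/em 485 nm) followed continuously for 70 min; IC50 from initial rates by 4- or 5-parameter logistic fit.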

Sequence of TrkA (P04629 33-796): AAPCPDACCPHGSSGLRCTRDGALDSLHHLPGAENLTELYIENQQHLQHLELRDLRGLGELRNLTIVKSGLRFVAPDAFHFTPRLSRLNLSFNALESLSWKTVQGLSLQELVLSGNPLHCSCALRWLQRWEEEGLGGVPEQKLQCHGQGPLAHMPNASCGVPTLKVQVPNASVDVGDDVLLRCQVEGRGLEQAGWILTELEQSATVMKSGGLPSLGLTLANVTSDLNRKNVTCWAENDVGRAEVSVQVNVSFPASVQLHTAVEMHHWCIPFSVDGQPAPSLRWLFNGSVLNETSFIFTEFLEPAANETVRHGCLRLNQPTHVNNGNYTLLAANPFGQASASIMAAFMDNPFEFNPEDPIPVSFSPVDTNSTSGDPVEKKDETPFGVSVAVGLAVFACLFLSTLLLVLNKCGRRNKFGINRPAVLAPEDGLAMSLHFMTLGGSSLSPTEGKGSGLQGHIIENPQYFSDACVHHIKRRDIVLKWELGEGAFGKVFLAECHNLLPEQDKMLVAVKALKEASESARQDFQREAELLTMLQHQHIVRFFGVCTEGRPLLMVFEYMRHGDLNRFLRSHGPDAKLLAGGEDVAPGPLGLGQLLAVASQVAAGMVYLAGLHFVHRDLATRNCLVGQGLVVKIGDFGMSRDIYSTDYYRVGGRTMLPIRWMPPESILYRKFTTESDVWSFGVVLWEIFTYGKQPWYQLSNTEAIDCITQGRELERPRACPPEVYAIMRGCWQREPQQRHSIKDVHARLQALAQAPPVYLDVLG

Structure (SMILES)	IC50 [nM]
COCCN1C[C@@H](NC(=N)Nc2c(Br)c(C)nn2-c2ccccc2)[C@H](c2ccc(F)c(F)c2)C1 [Example 629, 1-(4-bromo-3-methyl-1-phenyl-1H-pyrazol-5-yl)-3-((3S,4R)-4-(3,4-difluorophenyl)-1-(2-methoxyethyl)pyrrolidin-3-yl)guanidine dihydrochloride]	1000 to 10000
COCCN1C[C@@H](NC(=S)Nc2c(Br)c(C)nn2-c2ccccc2)[C@H](c2ccc(F)c(F)c2)C1 [Example 630, 1-(4-bromo-3-methyl-1-phenyl-1H-pyrazol-5-yl)-3-((3S,4R)-4-(3,4-difluorophenyl)-1-(2-methoxyethyl)pyrrolidin-3-yl)thiourea]	< 100
COCCN1C[C@@H](NC(=S)Nc2c(C)c(-c3ccc(=O)n(C)c3)nn2-c2ccccc2)[C@H](c2ccc(F)c(F)c2)C1 [Example 631, 1-((3S,4R)-4-(3,4-difluorophenyl)-1-(2-methoxyethyl)pyrrolidin-3-yl)-3-(4-methyl-3-(1-methyl-6-oxo-1,6-dihydropyridin-3-yl)-1-phenyl-1H-pyrazol-5-yl)thiourea]	< 100
COCCN1C[C@@H](NC(=S)Nc2c(C)c(-c3cnn(C)c3)nn2-c2ccccc2)[C@H](c2ccc(F)c(F)c2)C1 [Example 632, 1-((3S,4R)-4-(3,4-difluorophenyl)-1-(2-methoxyethyl)pyrrolidin-3-yl)-3-(1′,4-dimethyl-1-phenyl-1H,1′H-3,4′-bipyrazol-5-yl)thiourea]	< 100
COCCN1C[C@@H](NC(=S)Nc2c(C)c(-c3cnn(C)c3)nn2-c2ccccc2)[C@H](c2ccc(F)cc2)C1 [Example 633, 1-((3S,4R)-4-(4-fluorophenyl)-1-(2-methoxyethyl)pyrrolidin-3-yl)-3-(1′,4-dimethyl-1-phenyl-1H, 1′H-3,4′-bipyrazol-5-yl)thiourea]	< 100
COCCN1CC(c2ccccc2)[C@H](NC(=O)Nc2c(-c3ccccc3)nn3ccccc23)C1 (stereo partly drawn) [Example 634]	< 100
COCCN1C[C@@H](NC(=O)Nc2c(-c3ccccc3)nn3ccccc23)[C@H](c2ccc(F)c(F)c2)C1 [Example 635, 1-((3S,4R)-4-(3,4-difluorophenyl)-1-(2-methoxyethyl)pyrrolidin-3-yl)-3-(2-phenylpyrazolo[1,5-a]pyridin-3-yl)urea]	< 100
COCCN1CC(c2ccccc2)[C@H](NC(=O)Nc2cnn3ccccc23)C1 (stereo partly drawn) [Example 636]	100 to 1000
COCCN1C[C@@H](NC(=O)Nc2c(-c3ccccc3)nn(-c3cnccn3)c2C)[C@H](c2ccc(F)c(F)c2)C1 [Example 638, 1-((3S,4R)-4-(3,4-difluorophenyl)-1-(2-methoxyethyl)pyrrolidin-3-yl)-3-(5-methyl-3-phenyl-1-(pyrazin-2-yl)-1H-pyrazol-4-yl)urea]	< 100
COCCN1C[C@@H](NC(=O)Nc2c(-c3ccccc3)nn(C)c2C)[C@H](c2cc(F)cc(F)c2)C1 [Example 640, 1-((3S,4R)-4-(3,5-difluorophenyl)-1-(2-methoxyethyl)pyrrolidin-3-yl)-3-(1,5-dimethyl-3-phenyl-1H-pyrazol-4-yl)urea]	< 100
COCCN1C[C@@H](NC(=O)Nc2c(-c3ccccc3)nn(C(C)C)c2C)[C@H](c2ccc(F)c(F)c2)C1 [Example 641, 1-((3S,4R)-4-(3,4-difluorophenyl)-1-(2-methoxyethyl)pyrrolidin-3-yl)-3-(1-isopropyl-5-methyl-3-phenyl-1H-pyrazol-4-yl)urea]	100 to 1000
COCCN1C[C@@H](NC(=O)Nc2c(-c3ccccc3)nn(C(C)C)c2C)[C@H](c2cc(F)cc(F)c2)C1 [Example 642, 1-((3S,4R)-4-(3,5-difluorophenyl)-1-(2-methoxyethyl)pyrrolidin-3-yl)-3-(1-isopropyl-5-methyl-3-phenyl-1H-pyrazol-4-yl)urea]	100 to 1000
CCn1nc(-c2ccccc2)c(NC(=O)N[C@@H]2CN(CCOC)C[C@H]2c2ccc(F)c(F)c2)c1C [Example 644, 1-((3S,4R)-4-(3,4-difluorophenyl)-1-(2-methoxyethyl)pyrrolidin-3-yl)-3-(1-ethyl-5-methyl-3-phenyl-1H-pyrazol-4-yl)urea]	< 100
CCn1nc(C)c(NC(=O)N[C@@H]2CN(CCOC)C[C@H]2c2ccc(F)c(F)c2)c1-c1ccccc1 [Example 645, 1-((3S,4R)-4-(3,4-difluorophenyl)-1-(2-methoxyethyl)pyrrolidin-3-yl)-3-(1-ethyl-3-methyl-5-phenyl-1H-pyrazol-4-yl)urea]	< 100

More lines, now with the values ahead:

IC50 [nM]	Structure (SMILES)
< 100	COCCN1C[C@@H](NC(=O)Nc2cnn3ccccc23)[C@H](c2ccc(F)c(F)c2)C1 [Example 637, 1-((3S,4R)-4-(3,4-difluorophenyl)-1-(2-methoxyethyl)pyrrolidin-3-yl)-3-(pyrazolo[1,5-a]pyridin-3-yl)urea]
< 100	COCCN1C[C@@H](NC(=O)Nc2c(-c3ccccc3)nn(C)c2C)[C@H](c2ccc(F)c(F)c2)C1 [Example 639, 1-((3S,4R)-4-(3,4-difluorophenyl)-1-(2-methoxyethyl)pyrrolidin-3-yl)-3-(1,5-dimethyl-3-phenyl-1H-pyrazol-4-yl)urea]
< 100	COCCN1C[C@@H](NC(=O)Nc2c(-c3ccccc3)nn(CC(F)(F)F)c2C)[C@H](c2ccc(F)c(F)c2)C1 [Example 643, 1-((3S,4R)-4-(3,4-difluorophenyl)-1-(2-methoxyethyl)pyrrolidin-3-yl)-3-(5-methyl-3-phenyl-1-(2,2,2-trifluoroethyl)-1H-pyrazol-4-yl)urea]
100 to 1000	COCCN1C[C@@H](NC(=O)Nc2c(C(F)(F)F)nn(C)c2-c2ccccc2)[C@H](c2ccc(F)c(F)c2)C1 [Example 646, 1-((3S,4R)-4-(3,4-difluorophenyl)-1-(2-methoxyethyl)pyrrolidin-3-yl)-3-(1-methyl-5-phenyl-3-(trifluoromethyl)-1H-pyrazol-4-yl)urea]
< 100	COCCN1C[C@@H](NC(=O)Nc2c(-c3ccccc3)nn(C)c2C(F)(F)F)[C@H](c2ccc(F)c(F)c2)C1 [Example 647, 1-((3S,4R)-4-(3,4-difluorophenyl)-1-(2-methoxyethyl)pyrrolidin-3-yl)-3-(1-methyl-3-phenyl-5-(trifluoromethyl)-1H-pyrazol-4-yl)urea]
< 100	COCCN1C[C@@H](NC(=O)Nc2cn(-c3ccccc3)nc2C)[C@H](c2ccc(F)c(F)c2)C1 [Example 648, 1-((3S,4R)-4-(3,4-difluorophenyl)-1-(2-methoxyethyl)pyrrolidin-3-yl)-3-(3-methyl-1-phenyl-1H-pyrazol-4-yl)urea]
100 to 1000	COCCN1C[C@@H](NC(=O)Nc2cn(-c3ccccc3)nc2C(F)(F)F)[C@H](c2ccc(F)c(F)c2)C1 [Example 649, 1-((3S,4R)-4-(3,4-difluorophenyvl)-1-(2-methoxyethyl)pyrrolidin-3-yl)-3-(1-phenyl-3-(trifluoromethyl)-1H-pyrazol-4-yl)urea]
